According to US20140094510A1, “NON-AQUEOUS TAXANE NANODISPERSION FORMULATIONS AND METHODS OF USING THE SAME” (Teikoku Pharma USA, Inc., priority 2012, published 2014):

Assay: Solubility of anhydrous docetaxel in PEG 300 / PEG 400
Type: physicochemical
Settings: per 1 g PEG 300; ultrasonic dispersion for 5 minutes at 70-80° C.
Method: Formulations of anhydrous docetaxel and either PEG 400 or PEG 300 were prepared and mixed using ultrasonic dispersion for 5 minutes at 70-80° C. 1 g of PEG 400 dissolved 25 mg of anhydrous docetaxel. […] 1 g of PEG 300 dissolved 100 mg of anhydrous docetaxel. Accordingly, PEG 300 was able to better solubilize anhydrous docetaxel.

With `CC(=O)O[C@@]12CO[C@@H]1C[C@H](O)[C@@]1(C)C(=O)[C@H](O)C3=C(C)[C@@H](OC(=O)[C@H](O)[C@@H](NC(=O)OC(C)(C)C)c4ccccc4)C[C@@](O)([C@@H](OC(=O)c4ccccc4)[C@H]21)C3(C)C` [anhydrous docetaxel, (2R,3S)—N-carboxy-3-phenylisoserine,Ntert-butyl ester, 13-ester with 5β-20-epoxy-1,2α,4,7β,10β,13α-hexahydroxytax-11-en-9-one 4-acetate 2-benzoate] the “amount of anhydrous docetaxel dissolved by 1 g of PEG 300” value was no less than 100 mg.
